Converted amounts (≈) assume the structure as drawn. The source made the active and inactive calls. The calls are words filed in the database; no cut-off is given here.
How the values were obtained:
[1] = Apparent permeability of the compound across bacterial inner membrane mimic PC-phospholipids in PBS buffer assessed as membrane retention at pH 7.4 incubated for 5 hrs by PAMPA based UV-Vis spectrophotometric analysis; assay type: ADME, cell membranes; conditions: pH 7.4, 5 h
[2] = Hemolytic activity against human RBC at 2 ug/ml incubated for 30 mins (reference value: 0%); assay type: toxicity, cell-based, Erythrocyte; conditions: human red blood cells (erythrocytes), at 2 µg/mL, read-out: Activity
[3] = test system: Cell membrane; experiment: Disruption of membrane integrity in Acinetobacter baumannii ATCC 17978 assessed as increase in PI uptake at 16 ug/ml measured after 1 hr by SYTO9/PI staining based fluorometric analysis; assay type: subcellular; conditions: dose 16.0 µg/ml
[4] = Apparent permeability of the compound across bacterial inner membrane mimic PC-phospholipids in PBS buffer at pH 7.4 incubated for 5 hrs by PAMPA based UV-Vis spectrophotometric analysis; assay type: ADME
[5] = test system: Cell membrane; experiment: Disruption of membrane integrity in Bacillus subtilis ATCC 6633 assessed as increase in PI uptake at 16 ug/ml measured after 15 mins by SYTO9/PI staining based fluorometric analysis; conditions: dose 16.0 µg/ml
[6] = test system: Cell membrane; experiment: Disruption of membrane integrity in Enterococcus faecalis ATCC 19433 assessed as increase in PI positive cells at 16 ug/ml measured after 1 hr by SYTO9/PI staining based confocal laser scanning microscope analysis; assay type: subcellular; conditions: dose 16.0 µg/ml
[7] = test system: Enterococcus faecalis; experiment: Antibacterial activity against Enterococcus faecalis ATCC 19433 assessed as bacterial growth inhibition incubated for 18 hrs by micro-dilution broth method; assay type: functional
[8] = test system: Pseudomonas aeruginosa; experiment: Antibacterial activity against Pseudomonas aeruginosa ATCC 27853 assessed as bacterial growth inhibition incubated for 18 hrs by micro-dilution broth method; assay type: functional
[9] = test system: Cell membrane; experiment: Disruption of membrane integrity in Pseudomonas aeruginosa ATCC 27853 assessed as increase in PI positive cells at 16 ug/ml measured after 1 hr by SYTO9/PI staining based confocal laser scanning microscope analysis; assay type: subcellular; conditions: dose 16.0 µg/ml
[10] = test system: Streptococcus pyogenes; experiment: Antibacterial activity against Streptococcus pyogenes ATCC 12344 assessed as bacterial growth inhibition incubated for 18 hrs by micro-dilution broth method; assay type: functional
[11] = Apparent permeability of the compound across bacterial inner membrane mimic POPE/POPG (6:4) in PBS buffer at pH 7.4 incubated for 5 hrs by PAMPA based UV-Vis spectrophotometric analysis; assay type: ADME
[12] = Hemolytic activity against human RBC at 64 ug/ml incubated for 30 mins (reference value: 0%); assay type: toxicity, cell-based, Erythrocyte; conditions: human red blood cells (erythrocytes), at 64 µg/mL, read-out: Activity
[13] = test system: Cell membrane; experiment: Disruption of membrane integrity in Bacillus subtilis ATCC 6633 assessed as increase in PI positive cells at 16 ug/ml measured after 1 hr by SYTO9/PI staining based confocal laser scanning microscope analysis; assay type: subcellular; conditions: dose 16.0 µg/ml
[14] = test system: Cell membrane; experiment: Disruption of membrane integrity in Escherichia coli MG1655 assessed as increase in PI uptake at 16 ug/ml measured every 15 mins for 6 hrs by SYTO9/PI staining based fluorometric analysis; conditions: dose 16.0 µg/ml
[15] = test system: Klebsiella pneumoniae; experiment: Antibacterial activity against Klebsiella pneumoniae ATCC 13833 assessed as bacterial growth inhibition incubated for 18 hrs by micro-dilution broth method; assay type: functional
[16] = Apparent permeability of the compound across bacterial inner membrane mimic POPE/POPG (6:4) in PBS buffer assessed as membrane retention at pH 7.4 incubated for 5 hrs by PAMPA based UV-Vis spectrophotometric analysis; assay type: ADME, cell membranes; conditions: pH 7.4, 5 h
[17] = test system: Cell membrane; experiment: Disruption of membrane integrity in Pseudomonas aeruginosa ATCC 27853 assessed as increase in PI uptake at 16 ug/ml measured after 1 hr by SYTO9/PI staining based fluorometric analysis; assay type: subcellular; conditions: dose 16.0 µg/ml
[18] = test system: Cell membrane; experiment: Disruption of membrane integrity in Acinetobacter baumannii ATCC 17978 assessed as increase in PI positive cells at 16 ug/ml measured after 1 hr by SYTO9/PI staining based confocal laser scanning microscope analysis; conditions: dose 16.0 µg/ml
[19] = test system: Lipid bilayer; experiment: Binding affinity to bacterial membrane mimic POPG large unilamellar vesicle assessed as hyperchromic shift at 125 uM measured after 1 hr by UV-Vis spectrophotometric analysis
[20] = Hemolytic activity against human RBC at 16 ug/ml incubated for 30 mins relative to control; assay type: toxicity, cell-based, Erythrocyte; conditions: human red blood cells (erythrocytes), at 16 µg/mL, read-out: Activity
[21] = test system: Acinetobacter baumannii; experiment: Antibacterial activity against Acinetobacter baumannii ATCC 17978 assessed as bacterial growth inhibition incubated for 18 hrs by micro-dilution broth method; assay type: functional
[22] = test system: Cell membrane; experiment: Disruption of membrane integrity in Enterococcus faecalis ATCC 19433 assessed as increase in PI uptake at 16 ug/ml measured after 1 hr by SYTO9/PI staining based fluorometric analysis; assay type: subcellular; conditions: dose 16.0 µg/ml
[23] = test system: Cell membrane; experiment: Disruption of membrane integrity in Acinetobacter baumannii ATCC 17978 assessed as increase in PI uptake at 16 ug/ml measured after 15 mins by SYTO9/PI staining based fluorometric analysis; conditions: dose 16.0 µg/ml
[24] = test system: Acinetobacter baumannii; experiment: Antibacterial activity against Acinetobacter baumannii AC-54/97 assessed as bacterial growth inhibition incubated for 18 hrs by CLSI based micro-dilution broth method; assay type: functional
[25] = Hemolytic activity against human RBC at 32 ug/ml incubated for 30 mins (reference value: 0%); assay type: toxicity, cell-based, Erythrocyte; conditions: human red blood cells (erythrocytes), at 32 µg/mL, read-out: Activity
[26] = test system: Staphylococcus aureus; experiment: Antibacterial activity against Staphylococcus aureus ATCC 25923 assessed as bacterial growth inhibition incubated for 18 hrs by micro-dilution broth method; assay type: functional
[27] = test system: Cell membrane; experiment: Disruption of membrane integrity in Bacillus subtilis ATCC 6633 assessed as increase in PI uptake at 16 ug/ml measured after 1 hr by SYTO9/PI staining based fluorometric analysis; assay type: subcellular; conditions: dose 16.0 µg/ml
[28] = test system: Cell membrane; experiment: Disruption of membrane integrity in Staphylococcus aureus ATCC 25923 assessed as increase in PI positive cells at 16 ug/ml measured after 1 hr by SYTO9/PI staining based confocal laser scanning microscope analysis; assay type: subcellular; conditions: dose 16.0 µg/ml
[29] = test system: Cell membrane; experiment: Disruption of membrane integrity in Escherichia coli MG1655 assessed as increase in PI uptake at 16 ug/ml measured after 1 hr by SYTO9/PI staining based fluorometric analysis; assay type: subcellular; conditions: dose 16.0 µg/ml
[30] = Hemolytic activity against human RBC at 8 ug/ml incubated for 30 mins (reference value: 0%); assay type: toxicity, cell-based, Erythrocyte; conditions: human red blood cells (erythrocytes), at 8 µg/mL, read-out: Activity
[31] = test system: Escherichia coli; experiment: Antibacterial activity against Escherichia coli CCUG assessed as bacterial growth inhibition incubated for 18 hrs by micro-dilution broth method; assay type: functional
[32] = test system: Cell membrane; experiment: Disruption of membrane integrity in Enterococcus faecalis ATCC 19433 assessed as increase in PI uptake at 16 ug/ml measured after 15 mins by SYTO9/PI staining based fluorometric analysis; conditions: dose 16.0 µg/ml
[33] = Hemolytic activity against human RBC at 4 ug/ml incubated for 30 mins (reference value: 0%); assay type: toxicity, cell-based, Erythrocyte; conditions: human red blood cells (erythrocytes), at 4 µg/mL, read-out: Activity
[34] = test system: Bacillus subtilis; experiment: Antibacterial activity against Bacillus subtilis ATCC 6633 assessed as bacterial growth inhibition incubated for 18 hrs by CLSI based micro-dilution broth method; assay type: functional
[35] = test system: Enterobacter cloacae; experiment: Antibacterial activity against Enterobacter cloacae VA-417/02 assessed as bacterial growth inhibition incubated for 18 hrs by CLSI based micro-dilution broth method; assay type: functional

SMILES | R% [1] [%] | hemolysis at 0.5 h, 2 ug/ml [2] [%] | Activity [3] | Papp at 5 h [4] [nm/s] | Activity [5] | Activity [6] | MIC [7] [mg/L] | MIC [8] [mg/L] | Activity [9] | MIC [10] [mg/L] | Papp at 5 h [11] [nm/s] | hemolysis at 0.5 h, 64 ug/ml [12] [%] | Activity [13] | Activity [14] | MIC [15] [mg/L] | R% [16] [%] | Activity [17] | Activity [18] | Activity [19] | hemolysis at 0.5 h, 16 ug/ml [20] [%] | other results
N=C(N)NCCCCCCCCN(CCCCCCCCNC(=N)NCC1CC1)C(=O)N(CCCCCCCCNC(=N)NCC1CC1)CCCCCCCCNC(=N)NCC1CC1.O=C(O)C(F)(F)F | 0 | 0 | Active | 18.5 | Active | Active | 1 | 8 | Active | 0.25 | 3 | 8.1 | Active | Active | 1 | 40.8 | Active | Active | Active | 1.1 | MIC [21]: 4 mg/L; Activity [22]: Active; Activity [23]: Active; MBC [24]: 8 mg/L; MIC [24]: 8 mg/L; hemolysis at 0.5 h, 32 ug/ml [25]: 3.3%; MIC [26]: 0.5 mg/L; Activity [27]: Active; Activity [28]: Active; Activity [29]: Active; hemolysis at 0.5 h, 8 ug/ml [30]: 0%; MIC [31]: 0.5 mg/L; Activity [32]: Active; hemolysis at 0.5 h, 4 ug/ml [33]: 0%; MIC [34]: 0.5 mg/L; MBC [35]: 2 mg/L; MIC [35]: 2 mg/L
CCCCCCCCN(CCCCCCCCNC(=N)NCC1CC1)C(=O)N(CCCCCCNC(=N)NCC1CC1)CCCCCCNC(=N)NCC1CC1 | 0 | 0 | Active | 47.9 | Active | Active | 0.5 (≈ 0.636 µM) | 16 (≈ 20.3 µM) | Active | 1 (≈ 1.27 µM) | 1.3 | 46.4 | Active | Active | 4 (≈ 5.09 µM) | 65.2 | Active | Active | Active | 2.4 | MIC [21]: 16 mg/L (≈ 20.3 µM); Activity [22]: Active; Activity [23]: Active; MBC [24]: 8 mg/L (≈ 10.2 µM); MIC [24]: 8 mg/L (≈ 10.2 µM); hemolysis at 0.5 h, 32 ug/ml [25]: 8.4%; MIC [26]: 2 mg/L (≈ 2.54 µM); Activity [27]: Active; Activity [28]: Active; Activity [29]: Active; hemolysis at 0.5 h, 8 ug/ml [30]: 1.2%; MIC [31]: 4 mg/L (≈ 5.09 µM); Activity [32]: Active; hemolysis at 0.5 h, 4 ug/ml [33]: 0.5%; MIC [34]: 0.5 mg/L (≈ 0.636 µM); MBC [35]: 8 mg/L (≈ 10.2 µM); MIC [35]: 8 mg/L (≈ 10.2 µM)
N=C(NCCCCCCCCNC(N)=O)NCC1CC1.O=C(O)C(F)(F)F | 7.7 | 0 | Active | 31.7 | Active | Active | 1 | 16 | Active | 0.5 | 34.8 | 0 | Active | Active | 1 | 3.2 | Active | Active | Active | 0 | MIC [21]: 16 mg/L; Activity [22]: Active; Activity [23]: Active; MBC [24]: 16 mg/L; MIC [24]: 16 mg/L; hemolysis at 0.5 h, 32 ug/ml [25]: 0%; MIC [26]: 1 mg/L; Activity [27]: Active; Activity [28]: Active; Activity [29]: Active; hemolysis at 0.5 h, 8 ug/ml [30]: 0%; MIC [31]: 2 mg/L; Activity [32]: Active; hemolysis at 0.5 h, 4 ug/ml [33]: 0%; MIC [34]: 1 mg/L; MBC [35]: 8 mg/L; MIC [35]: 4 mg/L

From ChEMBL document CHEMBL5154741, “Antibacterial alkylguanidino ureas: Molecular simplification approach, searching for membrane-based MoA” (Eur J Med Chem, 2022)
